Results reported in BigSolDB 2.1.

CC1(C)CCC2=C(O1)c1ccccc1C(=O)C2=O
solubility (mole fraction)
Settings	298.15 K	303.15 K	308.15 K	313.15 K	318.15 K
in acetone	0.0205	0.0216	0.0245	0.0296	0.0342
in acetonitrile	0.018	0.0209	0.0227	0.0269	0.0325
in ethanol	0.00499	0.00595	0.00664	0.00909	0.0134
in ethyl acetate	0.00853	0.00936	0.0104	0.0121	0.0165
in isopropanol	0.00376	0.00432	0.00528	0.00754	0.0111
in methanol	0.0054	0.00654	0.0076	0.0101	0.0153
in n-butanol	0.00743	0.00895	0.0108	0.0142	0.0203
in n-propanol	0.00669	0.00793	0.00969	0.0146	0.0203
in propylene glycol	0.00306	0.00308	0.0037	0.00531	0.00724
in sec-butanol	0.00565	0.00671	0.0079	0.0104	0.0162
in water	2.85e-06	3.72e-06	4.46e-06	5.26e-06	6.12e-06
